The source of these data is patent US20230338362A1 (priority 2020, published 2023).

Test [1] relates to macrophages treated with SARS-CoV-2 Spike protein. Type of test: cell-based, human.
For test [2] the test system is unchanged. Type of test: cell-based, human. The source holds these as a separate data set.
Test [3] has as its system IRAK1, NF-κB, MAPKs, IRAK4 (MyD88 signaling). Briefly: MyD88 signaling in human macrophages. Type of test: cell-based.
Where [4] appears, read: human macrophages, through interaction with MyD88.
Throughout, for anti-inflammatory cytokines: test concentration or dose not given here.
Throughout, for apoptosis by activation of caspase 3: test concentration or dose not given here.
Throughout, for apoptosis by caspase 3 activation: test concentration or dose not given here.
Throughout, for expression of cytokine modulators / anti-inflammatory cytokines: test concentration or dose not given here.
Throughout, for expression of pro-inflammatory cytokines: test concentration or dose not given here.
Throughout, for expression of the anti-inflammatory cytokine IL-10: test concentration or dose not given here.
Throughout, for multiple pro-inflammatory cytokines: test concentration or dose not given here.
Throughout, for pro-inflammatory cytokines: test concentration or dose not given here.

Consider `O=C(OC[C@H]1O[C@@H](OC(=O)c2cc(O)c(O)c(O)c2)[C@H](OC(=O)c2cc(O)c(O)c(O)c2)[C@@H](OC(=O)c2cc(O)c(O)c(O)c2)[C@@H]1OC(=O)c1cc(O)c(O)c(O)c1)c1cc(O)c(O)c(O)c1`, for which, in test [1], the anti-inflammatory cytokines entry is “inducing anti-inflammatory cytokines such as IL-10”; the “expression of cytokine modulators / anti-inflammatory cytokines” value was “activated expression of cytokine modulators IL-10 and IFN-γ”; the “expression of pro-inflammatory cytokines” value was “inhibited expression of pro-inflammatory cytokines IL-1α, VEGF, IL-1β, IL-2, IL-4, IL-5, IL-6, IL-8, IL-12p70, IL-13, GM-CSF, GRO, MCP-1, MIP-1α, MIP-1β, MMP-9, RANTES, and TNF-α”; the “expression of the anti-inflammatory cytokine IL-10” value was “increasing expression of the anti-inflammatory cytokine IL-10”. In test [1], the multiple pro-inflammatory cytokines entry is “suppressed multiple pro-inflammatory cytokines such as IL-1β, TNF-α, IL-6 IL-8, IL-12, MCP-1 and MIP-1α”; the pro-inflammatory cytokines entry was “selectively inhibited pro-inflammatory cytokine, such as IL-1α, VEGF, IL-1β, IL-2, IL-4, IL-5, IL-6, IL-8, IL-12p70, IL-13, GM-CSF, GRO, MCP-1, MIP-1α, MIP-1β, MMP-9, RANTES, and TNF-α”. In test [2], the “apoptosis by activation of caspase 3” value is reported as “selectively induces apoptosis” and the “apoptosis by caspase 3 activation” value was “not observed to induce apoptosis”. For the same compound, the “NF-κB translocation into the nucleus” value in test [3] is “inhibited NF-κB translocation into the nucleus”. Besides, in test [3] (setting [4]), the “activation of IRAK1, NF-κB, and MAPKs” value was “potently reduced the activation of IRAK1, NF-κB, and MAPKs”; the “expression of IRAK4” value was “increasing expression of IRAK4”.
